Source: patent publication EP0942911B1, “BENZOPYRANOPYRROLE AND BENZOPYRANOPYRIDINE ALPHA-1 ADRENERGIC COMPOUNDS” (Abbott Laboratories, priority 1996, dated 1998)
Structures can show the parent of a compound that is named as a salt. Where two headings read alike, the source gives them in different places.

What was measured:
α-1a adrenoreceptor = biological target: T1, α-1a adrenoreceptor (Bos taurus, UniProt P18130); assay: biochemical; type: binding, bovine; details: read-out: Radioligand Binding (Ki, nM) 1a (Bovine)
T1 sequence (P18130 1-466): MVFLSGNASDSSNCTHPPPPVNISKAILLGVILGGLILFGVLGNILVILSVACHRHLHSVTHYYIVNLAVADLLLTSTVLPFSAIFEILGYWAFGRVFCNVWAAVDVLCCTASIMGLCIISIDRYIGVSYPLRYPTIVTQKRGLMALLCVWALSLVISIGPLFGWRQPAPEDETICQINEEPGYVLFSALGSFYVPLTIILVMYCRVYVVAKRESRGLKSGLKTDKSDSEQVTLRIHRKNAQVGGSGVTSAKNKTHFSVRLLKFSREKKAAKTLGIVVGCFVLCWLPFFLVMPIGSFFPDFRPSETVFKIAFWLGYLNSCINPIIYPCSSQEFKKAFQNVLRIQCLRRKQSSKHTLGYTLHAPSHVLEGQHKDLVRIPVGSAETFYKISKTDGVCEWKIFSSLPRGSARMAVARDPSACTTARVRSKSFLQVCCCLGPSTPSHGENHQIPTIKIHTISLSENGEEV
How it was run: (§1)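 LTK mouse fibroblasts stably transfected with α-1a, α-1b or α-1d cDNA → roller-bottle culture 5 days at 37 °C → membranes in 50 mM Tris-HCl, stored at -70 °C → radioligand binding → scintillation counting.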

α-1d adrenoreceptor = biological target: T2, α-1d adrenoreceptor (Rattus norvegicus, UniProt P23944); assay: biochemical; type: binding; details: read-out: Radioligand Binding (Ki, nM) 1d (Rat)
T2 sequence (P23944 1-561): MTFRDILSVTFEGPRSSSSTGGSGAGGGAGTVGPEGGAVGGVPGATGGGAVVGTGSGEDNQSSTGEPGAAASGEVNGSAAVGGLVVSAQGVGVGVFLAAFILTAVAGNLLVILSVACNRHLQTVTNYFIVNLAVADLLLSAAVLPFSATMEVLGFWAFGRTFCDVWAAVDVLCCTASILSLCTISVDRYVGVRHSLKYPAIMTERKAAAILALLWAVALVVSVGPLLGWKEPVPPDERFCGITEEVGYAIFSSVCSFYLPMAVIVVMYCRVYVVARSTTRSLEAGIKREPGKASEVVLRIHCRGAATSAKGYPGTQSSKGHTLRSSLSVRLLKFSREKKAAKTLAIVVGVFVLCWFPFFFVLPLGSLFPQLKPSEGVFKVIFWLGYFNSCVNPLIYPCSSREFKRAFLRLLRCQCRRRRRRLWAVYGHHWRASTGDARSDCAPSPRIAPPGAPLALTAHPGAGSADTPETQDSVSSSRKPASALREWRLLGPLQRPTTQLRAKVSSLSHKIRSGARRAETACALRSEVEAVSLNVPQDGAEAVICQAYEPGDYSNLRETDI
How it was run: as §1

[1] = [3H]-prazosin radioligand, cloned receptor in LTK cell membranes

Row | Molecule | Ki (α-1a adrenoreceptor; [1]) | Ki (α-1d adrenoreceptor; [1]) | Ki (α-1a adrenoreceptor) | Ki (α-1d adrenoreceptor)
1 | COc1cccc2c1[C@@H]1CN(CCCCn3c(=O)[nH]c4c(sc5nc(C)ccc54)c3=O)C[C@H]1CO2 [Example 45, 3-[4-((3aS,9bR)-trans-9-Methoxy-1,2,3,3a,4,9b-hexahydro-[1]-benzopyrano[3,4-c]pyrrol-2-yl)butyl]-7-methyl-pyrido[3',2':4,5]thieno[3,2-d]pyrimidine-2,4(1H,3H)-dione hydrochloride] | 0.066 nM | 0.104 nM |  | 
2 | COc1cccc2c1[C@@H]1CN(CCCCn3c(=O)[nH]c4c(sc5ccc(Cl)nc54)c3=O)C[C@@H]1CO2 [Example 37, 3-[4-((3aR,9bR)-cis-9-Methoxy-1,2,3,3a,4,9b-hexahydro-[1]-benzopyrano[3,4-c]pyrrol-2-yl)butyl]-8-chloro-pyrido[2',3':4,5]thieno[3,2-d]pyrimidine-2,4(1H,3H)-dione hydrochloride] | 0.069 nM | 0.195 nM |  | 
3 | COc1cccc2c1[C@@H]1CCN(CCCCn3c(=O)[nH]c4c(sc5ncccc54)c3=O)C[C@H]1CO2 (racemic) [Example 85, 3-[4-((±)-trans-10-Methoxy-1,3,4,4a,5,10b-hexahydro-2H-[1]-benzopyrano[3,4-c]pyrido-3-yl)butyl]-pyrido[3',2':4,5]thieno[3,2-d]pyrimidine-2,4(1H,3H)-dione dihydrochloride] | 0.336 nM | 0.566 nM |  | 
4 | COc1ccc2sc3c(=O)n(CCCCN4C[C@@H]5COc6cccc(OC)c6[C@@H]5C4)c(=O)[nH]c3c2n1 [Example 30, 3-[4-((3aR,9bR)-cis-9-Methoxy-1,2,3,3a,4,9b-hexahydro-[1]-benzopyrano[3,4-c]pyrrol-2-yl)butyl]-8-methoxy-pyrido[2',3':4,5]thieno[3,2-d]pyrimidine-2,4(1H,3H)-dione hydrochloride] | 0.066 nM | 0.222 nM |  | 
5 | COc1cccc2c1[C@@H]1CN(CCCn3c(=O)[nH]c4c(sc5ccccc54)c3=O)C[C@@H]1CO2.Cl (racemic) [Example 66, 3-[3-((±)-cis-9-Methoxy-1,2,3,3a,4,9b-hexahydro-[1]-benzopyrano[3,4-c]pyrrol-2-yl)propyl]-[1]benzthieno[3,2-d]pyrimidine-2,4(1H,3H)-dione hydrochloride] |  |  | 24.8 nM | 87.7 nM
6 | COc1cccc2c1[C@@H]1CN(CCCCn3c(=O)[nH]c4c(sc5nccc(OC)c54)c3=O)C[C@@H]1CO2 [Example 36, 3-[4-((3aR,9bR)-cis-9-Methoxy-1,2,3,3a,4,9b-hexahydro-[1]-benzopyrano[3,4-c]pyrrol-2-yl)butyl]-9-methoxy-pyrido[3',2':4,5]thieno[3,2-d]pyrimidine-2,4(1H,3H)-dione hydrochloride] | 0.124 nM | 0.36 nM |  | 
7 | COc1cccc2c1[C@@H]1CN(CCCCn3c(=O)[nH]c4c(sc5ncc(-c6ccccc6)nc54)c3=O)C[C@@H]1CO2 [Example 39, 3-[4-((3aR,9bR)-cis-9-Methoxy-1,2,3,3a,4,9b-hexahydro-[1]-benzopyrano[3,4-c]pyrrol-2-yl)butyl]-8-phenyl-pyrazino[2',3':4,5]thieno[3,2-d]pyrimidine-2,4(1H,3H)-dione hydrochloride] | 0.226 nM | 2.15 nM |  | 
8 | Cl.O=c1[nH]c2c(sc3ccccc32)c(=O)n1CCN1C[C@@H]2COc3ccccc3[C@@H]2C1 (racemic) [Example 69, 3-[2-((±)-cis-1,2,3,3a,4,9b-hexahydro-[1]-benzopyrano[3,4-c]pyrrol-2-yl)ethyl]-[1]benzthieno[3,2-d]pyrimidine-2,4(1H,3H)-dione hydrochloride] |  |  | 0.344 nM | 1.63 nM
9 | COc1cnc2sc3c(=O)n(CCCCN4CC5COc6cccc(OC)c6[C@@H]5C4)c(=O)[nH]c3c2n1.Cl (stereo in doubt) [Example 43, 3-[4-((3aS,9bR)-trans-9-Methoxy-1,2,3,3a,4,9b-hexahydro-[1]-benzopyrano[3,4-c]pyrrol-2-yl)butyl]-8-methoxy-pyrazino[2',3':4,5]thieno[3,2-d]pyrimidine-2,4(1H,3H)-dione hydrochloride] | 0.037 nM | 0.063 nM |  | 
10 | COc1cccc2c1[C@@H]1CN(CCCCn3c(=O)[nH]c4c(sc5c(OC)ccnc54)c3=O)C[C@H]1CO2 [Example 17, 3-[4-((3aS,9bR)-trans-9-Methoxy-1,2,3,3a,4,9b-hexahydro-[1]-benzopyrano[3,4-c]pyrrol-2-yl)butyl]-6-methoxy-pyrido[2',3':4,5]thieno[3,2-d]pyrimidine-2,4(1H,3H)-dione dihydrochloride] | 0.068 nM | 0.19 nM |  | 
11 | COc1cccc2c1[C@@H]1CN(CCCCn3c(=O)[nH]c4c(sc5ccc(Cl)nc54)c3=O)C[C@H]1CO2 [Example 25, 3-[4-((3aS,9bR)-trans-9-Methoxy-1,2,3,3a,4,9b-hexahydro-[1]-benzopyrano[3,4-c]pyrrol-2-yl)butyl]-8-chloro-pyrido[2',3':4,5]thieno[3,2-d]pyrimidine-2,4(1H,3H)-dione dihydrochloride] | 0.03 nM | 0.039 nM |  | 
12 | COc1cccc2c1[C@@H]1CN(CCCCn3c(=O)[nH]c4c(sc5ccncc54)c3=O)C[C@@H]1CO2 [Example 28, 3-[4-((3aR,9bR)-cis-9-Methoxy-1,2,3,3a,4,9b-hexahydro-[1]-benzopyrano[3,4-c]pyrrol-2-yl)butyl]-pyrido[3',4':4,5]thieno[3,2-d]pyrimidine-2,4(1H,3H)-dione dihydrochloride] | 0.092 nM | 0.195 nM |  | 
13 | COc1ccc2sc3c(=O)n(CCCCN4C[C@H]5COc6cccc(OC)c6[C@@H]5C4)c(=O)[nH]c3c2n1 [Example 26, 3-[4-((3aS,9bR)-trans-9-Methoxy-1,2,3,3a,4,9b-hexahydro-[1]-benzopyrano[3,4-c]pyrrol-2-yl)butyl]-8-methoxy-pyrido[2',3':4,5]thieno[3,2-d]pyrimidine-2,4(1H,3H)-dione hydrochloride] | 0.022 nM | 0.017 nM |  | 
14 | COc1cccc2c1[C@@H]1CN(CCCCn3c(=O)[nH]c4c(sc5nc(Cl)ccc54)c3=O)C[C@H]1CO2 [Example 47, 3-[4-((3aS,9bR)-trans-9-Methoxy-1,2,3,3a,4,9b-hexahydro-[1]-benzopyrano[3,4-c]pyrrol-2-yl)butyl]-7-chloro-pyrido[3',2':4,5]thieno[3,2-d]pyrimidine-2,4(1H,3H)-dione hydrochloride] | 0.038 nM | 0.189 nM |  | 
15 | 3-[4-((3aR,9bR)-cis-9-Methoxy-1,2,3,3a,4,9b-hexahydro-[1]-benzopyrano[3,4-c]pyrrol-2-yl]butyl]-7-methoxy-pyrido[3',2':4,5]thieno[3,2-d]pyrimidine-2,4(1H,3H)-dione hydrochloride [Example 33] | 0.082 nM | 0.701 nM |  | 
16 | COc1cccc2c1[C@@H]1CCN(CCCCn3c(=O)[nH]c4c(sc5ncc(Cl)nc54)c3=O)C[C@H]1CO2 [Example 97, 3-[4-((4aS,10bR)-trans-10-Methoxy-1,3,4,4a,5,10b-hexahydro-2H-[1]-benzopyrano[3,4-c]pyrido-3-yl)butyl]-8-chloro-pyrazino[2',3':4,5]thieno[3,2-d]pyrimidine-2,4(1H,3H)-dione dihydrochloride] | 0.097 nM | 0.247 nM |  | 
17 | COc1ccc2c(c1)OC[C@H]1CN(CCn3c(=O)[nH]c4c(sc5ccccc54)c3=O)C[C@@H]21.Cl (racemic) [Example 63, 3-[2-((±)-cis-7-Methoxy-1,2,3,3a,4,9b-hexahydro-[1]-benzopyrano[3,4-c]pyrrol-2-yl)ethyl]-[1]benzthieno[3,2-d]pyrimidine-2,4(1H,3H)-dione hydrochloride] |  |  | 11.2 nM | 70.1 nM
18 | COc1cccc2c1[C@@H]1CN(CCCCn3c(=O)[nH]c4c(sc5c(OC)ccnc54)c3=O)C[C@@H]1CO2 [Example 18, 3-[4-((3aR,9bR)-cis-9-Methoxy-1,2,3,3a,4,9b-hexahydro[1]-benzopyrano[3,4-c]pyrrol-2-yl)butyl]-6-methoxy-pyrido[2',3':4,5]thieno[3,2-d]pyrimidine-2,4(1H,3H)-dione dihydrochloride] | 0.069 nM | 0.79 nM |  | 
19 | COc1ccc2c(c1)OC[C@H]1CN(CCCn3c(=O)[nH]c4c(sc5ccccc54)c3=O)C[C@@H]21.Cl (racemic) [Example 64, 3-[3-((±)-cis-7-Methoxy-1,2,3,3a,4,9b-hexahydro-[1]-benzopyrano[3,4-c]pyrrol-2-yl)propyl]-[1]benzthieno[3,2-d]pyrimidine-2,4(1H,3H)-dione hydrochloride] |  |  | 1.63 nM | 10.4 nM
